Assay results published in patent US4996225A, “Tri-phenyl alkane derivatives and their oestrogenic, anti-oestrogenic and progestanic uses” (Farmos Group Ltd., priority 1982, dated 1991).
pIC50: −log10 of the molar value. “Also recorded” adds a separate entry of the source.

Legend:
[1] = test system: immature mouse uterus; assay: oestrogenic effect, uterus weight of immature mice; assay type: in vivo; conditions: for estrogenic effect: less than that of estradiol 0.05 mg/kg: 5 mg/kg; for estrogenic effect (in words): immature mice, s.c., three days
Procedure: (§1) The oestrogen-antiestrogen (progesterone) effect of the new compounds in vivo was determined as follows: (1) The oestrogenic properties were determined by administering the new compounds, suspended in sesame oil, subcutaneously to 21 days old immature mice on three consecutive days. The mice were killed on the fourth day and the uterus was weighed. […] The weight correlates with the oestrogenic effect of the compound tested. […] In this case, the ability of the molecules to inhibit oestrogen-induced uterus weight increase was also investigated.

[2] = test system: estradiol induced weight increase in immature mouse uterus; assay: antiestrogenic effect, inhibition of oestrogen-induced uterus weight increase in immature mice; assay type: in vivo; conditions: for anti-estrogenic effect (in words): immature mouse uterus; for effect with estradiol (in words) / reduction in the weights of mice uterus, with estradiol: with estradiol 0.05 mg/kg
Procedure: as §1

[3] = test system: immature mouse uterus; assay: progestanic effect, uterus weight of immature mice (alone or with medroxyprogesterone acetate); assay type: in vivo; conditions: for effect with medroxyprogesterone (in words) / reduction in the weights of mice uterus with medroxyprogesterone, compared to control: with medroxyprogesterone 0.06 mg/kg
Procedure: Medroxy-progesterone acetate, which decreases uterus weight, was used as reference.
The progestanic effects of the compounds were measured as described earlier.

[4] = test system: MCF-7 cell line (human mammary adenocarcinoma); assay: anti-tumour effect in vitro, growth of MCF-7 cell line (bioluminescence assay, intracellular ATP); assay type: cell-based; conditions: read-out: Antitumour effect against MCF-7 cell line (IC50 = concentration of compound where 50% inhibition of cell growth could be seen)
Procedure: The anti-tumour effect was studied in vitro as follows:
The amount of living cells after 4 h, 24 h and 48 h incubations were determined by bioluminescence assay (intracellular ATP determination).
inhibition of cell growth could be seen.

[5] = test system: DMBA-induced rat mammary adenocarcinomas; assay: antitumour effect in vivo against DMBA-induced rat mammary adenocarcinoma; conditions: for growth / size of tumour (width×height): 30 mg/kg
Procedure: (§2) The anti-tumour effect was investigated in vivo against DMBA-induced rat mammary adenocarcinomas, transplantable mammary and ovarial adenocarcinoma and transplantable prostatic squamous cell carcinoma by the following methods:
Mammary adenocarcinomas were induced by DMBA in 35-40 days old female rats. […] Tumour size and numbers of tumours were evaluated twice a week. Tumour sizes in the control group, treated with solvent, were compared with the test groups.
The size refers to the width×height of the tumour. The growth rate is a difference between sizes compared with that of the first day of the treatment.

[6] = test system: rat ovarial carcinoma; assay: antitumour effect against transplantable rat ovarial carcinoma; assay type: in vivo; conditions: 5 mg/kg, ten days' treatment
Description: as §2
(§3) Transplantable rat mammary adenocarcinoma was developed by inoculating pieces of DMBA-induced carcinomas subcutaneously to healthy mature female rats. A tumour which expressed malignant growth was selected for further transplantations. Other transplantable tumours were inoculated subcutaneously as washed cell suspension (10^7 cells/animal).

[7] = test system: mouse uterus sarcoma; assay: antitumour effect against transplantable mouse uterus sarcoma; assay type: in vivo; conditions: 100 mg/kg, two weeks' treatment
Description: The activity of the molecules against other tumours was studied by administering the molecules by stomach tube to animals implanted with transplantable uterus sarcoma (mice) or prostatic adenocarcinoma (rats).
Daily or twice weekly administration schedules were employed. NMRI mice (about 20 g, females) and Fischer 344 rats (about 200 g, males) were used. Estramustine phosphate served as positive control.
as §3

[8] = molecular target: T1, oestrogen receptors (Rattus norvegicus, UniProt P06211); assay: affinity for oestrogen receptors, competition with 3H-17-β-estradiol in rat uterus cytosol (dextran-charcoal method); assay type: binding; conditions: read-out: Estrogen receptor affinity (concentration of compound where 50% competition (inhibition) with 3H-estradiol occurred)
T1 construct: rat uterus cytosol preparation; from tissue; host or cells: rat uterus cytosol
T1 sequence (P06211 1-600): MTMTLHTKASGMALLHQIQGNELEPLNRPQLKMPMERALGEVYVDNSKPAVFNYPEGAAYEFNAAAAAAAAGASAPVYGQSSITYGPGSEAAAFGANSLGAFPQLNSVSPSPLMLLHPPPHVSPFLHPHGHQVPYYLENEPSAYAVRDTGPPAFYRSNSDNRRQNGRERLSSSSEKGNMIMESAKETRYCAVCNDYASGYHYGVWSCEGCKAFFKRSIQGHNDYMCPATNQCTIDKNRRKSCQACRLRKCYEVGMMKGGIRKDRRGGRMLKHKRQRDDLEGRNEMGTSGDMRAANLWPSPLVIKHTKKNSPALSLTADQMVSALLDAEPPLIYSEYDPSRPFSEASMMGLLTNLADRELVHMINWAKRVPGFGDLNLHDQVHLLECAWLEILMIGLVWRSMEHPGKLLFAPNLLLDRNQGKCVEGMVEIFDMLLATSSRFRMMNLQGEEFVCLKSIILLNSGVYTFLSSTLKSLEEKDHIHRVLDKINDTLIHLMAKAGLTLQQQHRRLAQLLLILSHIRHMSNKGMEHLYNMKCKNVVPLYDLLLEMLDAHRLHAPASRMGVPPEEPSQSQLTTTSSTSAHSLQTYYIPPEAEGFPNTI
Procedure: The affinity of the new compounds for oestrogen receptors was determined by the ability to compete with ^3 H-labelled 17-β-estradiol in rat uterus cytosol preparation. After incubation, receptor-bound and receptor-unbound ligands were separated by a known dextrancharcoal method.

CN(C)CCOc1ccc(/C(=C(/CCCl)c2ccccc2)c2ccccc2)cc1 [Compound 7, 4-chloro-1,2-diphenyl-1-[4-[2-(N,N-dimethylamino)ethoxy]phenyl]-1-butene]
estrogenic effect: less than that of estradiol 0.05 mg/kg [1]: about 50% | effect given alone: estrogenic (in words) ([1]; given alone): estrogenic | estrogenic effect (in words) [1]: could be seen only at the higher concentrations investigated; also recorded: possessing antiestrogenic and estrogenic properties | inhibition of estradiol induced effect in mouse uterus ([2]; 0.5 mg/kg): 27% | anti-estrogenic effect (in words) [2]: possessed anti-estrogenic effects; also recorded: possessing antiestrogenic and estrogenic properties | effect with estradiol (in words) [2]: anti- | reduction in the weights of mice uterus, with estradiol [2]: 27% | effect given alone: progestanic (in words) ([3]; given alone): progestanic | progestanic effect (in words) ([3]; immature mouse uterus): found to be progestanic | interaction with medroxyprogesterone (in words) ([3]; with medroxyprogesterone): slight inhibition of medroxyprogesterone at the lowest dose studied | effect with medroxyprogesterone (in words) [3]: weak | reduction in the weights of mice uterus with medroxyprogesterone, compared to control [3]: 14% | pIC50 [4]: 5.30 to 6.00 | growth ([5]; day 1 of treatment): 0 | size of tumour (width×height) ([5]; day 1 of treatment): 1.5188 | growth ([5]; day 3 of treatment): 0.1551 | size of tumour (width×height) ([5]; day 3 of treatment): 1.6739 | growth ([5]; day 7 of treatment): -0.2118 | size of tumour (width×height) ([5]; day 7 of treatment): 1.3070 | growth ([5]; day 9 of treatment): -0.4714 | size of tumour (width×height) ([5]; day 9 of treatment): 1.0474 | growth ([5]; day 14 of treatment): -0.5392 | size of tumour (width×height) ([5]; day 14 of treatment): 0.1179 | growth ([5]; day 17 of treatment): -0.5752 | size of tumour (width×height) ([5]; day 17 of treatment): 0.0820 | growth ([5]; day 21 of treatment): -0.5851 | size of tumour (width×height) ([5]; day 21 of treatment): 0.0721 | growth ([5]; day 25 of treatment): -0.5682 | size of tumour (width×height) ([5]; day 25 of treatment): 0.0891 | growth ([5]; day 28 of treatment): -0.5640 | size of tumour (width×height) ([5]; day 28 of treatment): 0.09316 | growth ([5]; day 35 of treatment): -0.5379 | size of tumour (width×height) ([5]; day 35 of treatment): 0.1193 | growth of the tumours (in words) ([5]; highest dose used (30 mg/kg)): the growth of the tumours was found to stop | dose range at which antitumour effect was found ([5]; rat, in vivo): 1.0 to 30 mg/kg | size of rat ovarial carcinoma smaller compared with control [6]: 20% | size of uterus sarcoma smaller than that of control [7]: 30%

CN(C)CCOc1ccc(/C(=C(/CCBr)c2ccccc2)c2ccccc2)cc1 [Compound 13, 4-bromo-1,2-diphenyl-1-[4-[2-(N,N-dimethylamino)ethoxy]phenyl]-1-butene]
pIC50 [8]: 6.00 to 7.00 | estrogenic effect: less than that of estradiol 0.05 mg/kg [1]: about 50% | effect given alone: estrogenic (in words) ([1]; given alone): estrogenic | increase in the weights of mice uterus, given alone ([1]; given alone): 50% | estrogenic effect (in words) [1]: could be seen only at the higher concentrations investigated | inhibition of estradiol induced effect in mouse uterus ([2]; 5 mg/kg): 25% | anti-estrogenic effect (in words) [2]: possessed anti-estrogenic effects | effect with estradiol (in words) [2]: anti- | reduction in the weights of mice uterus, with estradiol [2]: 25% | effect with medroxyprogesterone (in words) [3]: weak | reduction in the weights of mice uterus with medroxyprogesterone, compared to control [3]: 14% | pIC50 [4]: 5.30 to 6.00 | antitumour effect against DMBA-induced mammary cancer (in words) ([5]; compared with compound 7): Antitumour effect less than that of compound 7
